From article PMC11760385, “Differential GTP-dependent in-vitro polymerization of recombinant Physcomitrella FtsZ proteins” (Scientific Reports, 2025)

Legend:
[1] = target: T1, FtsZ2-1 (Physcomitrium patens, UniProt O49922); experiment: malachite green phosphate release GTPase assay; type: biochemical; settings: 1 mM GTP, 7.5 µM protein, 37.5 mM glycine pH 10, 100 mM KCl, 5 mM MgCl2, 5% glycerol, 25 °C, 10 min
T1 construct: gene ftsZ 2-1; lacks N-terminal transit peptide (42 aa, TargetP-2.0); N-terminal His6-SUMO tag cleaved with Ulp1; codon-optimised, expressed in E. coli NiCo; start 43 follows from the removed 42 aa

[2] = target: T2, FtsZ1-2 (Physcomitrium patens, UniProt A9SRP3); experiment: malachite green phosphate release GTPase assay; type: biochemical; settings: 1 mM GTP, 7.5 µM protein, 37.5 mM glycine pH 10, 100 mM KCl, 5 mM MgCl2, 5% glycerol, 25 °C, 10 min
T2 construct: gene LOC112295762; lacks N-terminal transit peptide (86 aa, TargetP-2.0); N-terminal His6-SUMO tag cleaved with Ulp1; codon-optimised, expressed in E. coli NiCo; start 87 follows from the removed 86 aa
T2 sequence (A9SRP3 entry or part of it): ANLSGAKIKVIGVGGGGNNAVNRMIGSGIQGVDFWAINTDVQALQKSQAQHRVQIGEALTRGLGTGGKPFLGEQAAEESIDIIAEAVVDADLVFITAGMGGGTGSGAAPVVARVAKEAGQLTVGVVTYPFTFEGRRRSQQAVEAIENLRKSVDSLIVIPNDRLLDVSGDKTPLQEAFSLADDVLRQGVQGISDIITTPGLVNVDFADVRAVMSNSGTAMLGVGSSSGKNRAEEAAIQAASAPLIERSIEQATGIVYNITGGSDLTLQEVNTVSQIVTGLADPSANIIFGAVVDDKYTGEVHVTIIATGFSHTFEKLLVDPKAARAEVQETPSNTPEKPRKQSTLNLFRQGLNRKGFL

T1 sequence (O49922 entry or part of it): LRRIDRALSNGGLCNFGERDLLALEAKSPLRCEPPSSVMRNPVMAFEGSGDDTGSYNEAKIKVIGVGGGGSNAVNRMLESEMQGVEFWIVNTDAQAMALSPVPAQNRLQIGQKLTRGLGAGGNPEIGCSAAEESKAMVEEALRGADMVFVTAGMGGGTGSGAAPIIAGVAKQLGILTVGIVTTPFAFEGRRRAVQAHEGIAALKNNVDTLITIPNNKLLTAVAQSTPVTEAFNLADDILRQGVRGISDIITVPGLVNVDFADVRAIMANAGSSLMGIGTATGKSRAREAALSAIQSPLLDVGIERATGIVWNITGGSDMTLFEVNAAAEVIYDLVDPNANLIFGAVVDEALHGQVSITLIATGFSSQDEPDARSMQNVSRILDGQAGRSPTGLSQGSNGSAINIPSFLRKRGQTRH

**Q.** Which results are given for Nc1nc2c(ncn2[C@@H]2O[C@H](COP(=O)(O)OP(=O)(O)OP(=O)(O)O)[C@@H](O)[C@H]2O)c(=O)[nH]1 [GTP]?
**A.** malachite green phosphate release GTPase assay [1]: Both FtsZ proteins exhibited low but significant GTPase activities.; malachite green phosphate release GTPase assay [2]: Both FtsZ proteins exhibited low but significant GTPase activities.
